Where two headings read alike, the source gives them in different places.
Assays:
FSHR = molecular target: T1, FSHR (Homo sapiens, UniProt P23945); assay: EC50 of cyclic AMP production in CHO FSHR cells + EC20 FSH (Assay A); format: cell-based; details: CHO FSHR cells + EC20 FSH, cAMP HTRF; read-out: Assay A: EC50 of cyclic AMP production
T1 construct: expressed in transfected cells; host or cells: CHO (Cho-FSHR-LUC-1-1-43)
T1 sequence (P23945 18-695): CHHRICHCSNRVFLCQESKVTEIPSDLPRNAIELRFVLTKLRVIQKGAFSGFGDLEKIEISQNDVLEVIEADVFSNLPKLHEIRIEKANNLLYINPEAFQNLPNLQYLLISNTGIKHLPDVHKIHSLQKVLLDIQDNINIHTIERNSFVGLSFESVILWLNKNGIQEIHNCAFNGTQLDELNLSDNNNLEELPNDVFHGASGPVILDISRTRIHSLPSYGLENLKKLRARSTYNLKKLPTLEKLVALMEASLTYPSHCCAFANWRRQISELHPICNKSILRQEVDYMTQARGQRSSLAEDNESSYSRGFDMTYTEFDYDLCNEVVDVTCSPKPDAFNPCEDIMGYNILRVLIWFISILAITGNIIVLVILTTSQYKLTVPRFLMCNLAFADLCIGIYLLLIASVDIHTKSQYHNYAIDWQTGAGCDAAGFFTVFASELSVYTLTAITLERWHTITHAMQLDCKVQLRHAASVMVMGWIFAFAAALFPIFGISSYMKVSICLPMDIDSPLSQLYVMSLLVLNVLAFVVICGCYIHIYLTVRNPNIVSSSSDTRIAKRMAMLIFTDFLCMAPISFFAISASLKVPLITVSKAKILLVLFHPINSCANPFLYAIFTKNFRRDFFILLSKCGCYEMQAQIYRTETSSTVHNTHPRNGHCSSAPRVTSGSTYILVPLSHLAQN
Procedure, shortened: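 Cho-FSHR-LUC cells were exposed to compound dilution series with EC20 FSH ([…]) and 200 μM IBMX for 1 h at 37° C. cAMP was read by HTRF (665/620 nm ratio). Effects are percent of the maximal FSH standard response.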

[1] = molecular target: T2, follicle-stimulating hormone (FSH) receptor (Rattus norvegicus, UniProt P20395); assay: Rat granulosa EC50 FSH (Assay B); format: cell-based; details: for EC50: rat granulosa cells, read-out: Assay B: Rat granulosa EC50 FSH
T2 construct: endogenous in cells; host or cells: primary rat granulosa cells
T2 sequence (P20395 18-692): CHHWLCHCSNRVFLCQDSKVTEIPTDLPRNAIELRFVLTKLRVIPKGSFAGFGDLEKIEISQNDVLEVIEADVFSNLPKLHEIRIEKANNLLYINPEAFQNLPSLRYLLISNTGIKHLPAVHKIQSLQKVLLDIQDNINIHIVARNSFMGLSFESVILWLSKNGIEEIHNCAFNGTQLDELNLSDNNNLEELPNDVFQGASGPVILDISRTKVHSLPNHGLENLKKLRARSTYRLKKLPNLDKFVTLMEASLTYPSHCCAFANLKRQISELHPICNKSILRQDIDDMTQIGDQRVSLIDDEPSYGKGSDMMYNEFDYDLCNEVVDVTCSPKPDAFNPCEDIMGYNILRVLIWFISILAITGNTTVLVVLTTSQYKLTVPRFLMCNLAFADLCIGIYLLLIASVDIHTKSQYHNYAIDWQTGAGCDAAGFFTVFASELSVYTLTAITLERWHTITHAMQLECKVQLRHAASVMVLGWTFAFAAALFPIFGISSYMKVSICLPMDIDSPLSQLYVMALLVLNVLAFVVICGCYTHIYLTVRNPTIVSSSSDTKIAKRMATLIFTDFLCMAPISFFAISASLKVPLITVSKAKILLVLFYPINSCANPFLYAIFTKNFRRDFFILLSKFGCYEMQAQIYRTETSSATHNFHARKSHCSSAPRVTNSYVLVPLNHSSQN
Experimental: Rat Granulosa EC50 FSH (Assay B)
The assay was performed pursuant to the teaching of Yanofsky et al. (2006) Allosteric activation of the follicle-stimulating hormone (FSH) receptor by selective, nonpeptide agonists (JBC 281(19): 13226-13233, which is incorporated by reference in the disclosure of the invention).

[2] = read-out: Assay B: percental effect (response) relative to the maximum response of the FSH standard

SMILES | EC50 (FSHR) [nM] | EC50 [1] [nM] | Emax at 30 µM ([1]; @ 30 μM, read-out: Assay B: percental effect (response) relative to the maximum response of the FSH standard) [%] | Emax at 6 µM [1, 2] [%] | Emax at 30 µM [1, 2] [%]
COc1cc2c(cc1C=C(C)C)-c1c(c(C(=O)NC(C)(C)CO)nn1-c1ccsc1)CO2 [Compound 10, 7-Methoxy-8-(2-methyl-propenyl)-1-thiophen-3-yl-1,4-dihydro-chromeno[4,3-c]pyrazole-3-carboxylic acid (2-hydroxy-1,1-dimethyl-ethyl)-amide] | 100 to 1000 | 1000 to 5000 |  |  | 
COc1cc2c(cc1-c1ccn(C)n1)-c1c(c(C(=O)N(C)C(C)(C)C)nn1-c1ccsc1)CO2 [Compound 63, 7-Methoxy-8-(1-methyl-1H-pyrazol-3-yl)-1-thiophen-3-yl-1,4-dihydro-chromeno[4,3-c]pyrazole-3-carboxylic acid tert-butyl-methyl-amide] | < 100 | 100 to 1000 |  |  | 
COc1cc2c(cc1C1=CCOC1)-c1c(c(C(=O)N(C)C(C)(C)C)nn1-c1ccsc1)CO2 [Compound 151, 8-(2,5-Dihydro-furan-3-yl)-7-methoxy-1-thiophen-3-yl-1,4-dihydro-chromeno[4,3-c]pyrazole-3-carboxylic acid tert-butyl-methyl-amide] | < 100 | 100 to 1000 |  |  | 
COc1cc2c(cc1-c1ccc(C)s1)-c1c(c(C(=O)N(C)C(C)(C)C)nn1-c1ccsc1)CO2 [Compound 93, 7-Methoxy-8-(5-methyl-thiophen-2-yl)-1-thiophen-3-yl-1,4-dihydro-chromeno[4,3-c]pyrazole-3-carboxylic acid tert-butyl-methyl-amide] | < 100 | 100 to 1000 |  |  | 
COc1cc2c(cc1-c1ccn(C)c1)-c1c(c(C(=O)NC3(C)COC3)nn1-c1ccsc1)CO2 [Compound 99, 7-Methoxy-8-(1-methyl-1H-pyrrol-3-yl)-1-thiophen-3-yl-1,4-dihydro-chromeno[4,3-c]pyrazole-3-carboxylic acid (3-methyl-oxetan-3-yl)-amide] | 100 to 1000 | 100 to 1000 |  |  | 
COc1cc2c(cc1C#N)-c1c(c(C(=O)N(C)C(C)(C)C)nn1-c1ccsc1)CO2 [Compound 12, 8-Cyano-7-methoxy-1-thiophen-3-yl-1,4-dihydro-chromeno[4,3-c]pyrazole-3-carboxylic Acid tert-butyl-methyl-amide] | < 100 | 1000 to 5000 |  |  | 
COC(=O)C1CCCN(C(=O)c2nn(-c3ccsc3)c3c2COc2cc(OC)c(C=C(C)C)cc2-3)CC1 (centres unmarked) [Compound 17, 1-[7-Methoxy-8-(2-methyl-propenyl)-1-thiophen-3-yl-1,4-dihydro-chromeno[4,3-c]pyrazole-3-carbonyl]-azepane-4-carboxylic acid methyl ester] | 100 to 1000 | > 5000 |  |  | 
COc1cc2c(cc1CC(C)C)-c1c(c(C(=O)N3CCCN(C(=O)C4CCCO4)CC3)nn1-c1ccsc1)CO2 (centres unmarked) [Compound 21, (8-Isobutyl-7-methoxy-1-thiophen-3-yl-1,4-dihydro-chromeno[4,3-c]pyrazol-3-yl)-[4-(tetrahydro-furan-2-carbonyl)-[1,4]diazepan-1-yl]-methanone] | 100 to 1000 | > 5000 |  |  | 
COc1cc2c(cc1Br)-c1c(c(C(=O)N(C)C(C)(C)C)nn1-c1ccsc1)CO2 [Compound 4, 8-Bromo-7-methoxy-1-thiophen-3-yl-1,4-dihydro-chromeno[4,3-c]pyrazole-3-carboxylic Acid tert-butyl-methyl-amide] | 100 to 1000 |  |  | 62 | 
COc1cc2c(cc1-c1cccnc1)-c1c(c(C(=O)N(C)C(C)(C)C)nn1-c1ccsc1)CO2 [Compound 2, 7-Methoxy-8-pyridin-3-yl-1-thiophen-3-yl-1,4-dihydro-chromeno[4,3-c]pyrazole-3-carboxylic Acid tert-butyl-methyl-amide] | < 100 |  |  |  | 54
COc1cc2c(cc1C1=CCCCO1)-c1c(c(C(=O)N(C)C(C)(C)C)nn1-c1ccsc1)CO2 [Compound 148, 8-(5,6-Dihydro-4H-pyran-2-yl)-7-methoxy-1-thiophen-3-yl-1,4-dihydro-chromeno[4,3-c]pyrazole-3-carboxylic acid tert-butyl-methyl-amide] | < 100 | 100 to 1000 |  |  | 
COc1cc2c(cc1OC(C)C)-c1c(c(C(=O)N3CCCC(C(=O)N4CCC4)CC3)nn1-c1ccsc1)CO2 (centres unmarked) [Compound 26, [4-(Azetidine-1-carbonyl)-azepan-1-yl]-(8-isopropoxy-7-methoxy-1-thiophen-3-yl-1,4-dihydro-chromeno[4,3-c]pyrazol-3-yl)-methanone] | 1000 to 5000 | > 5000 |  |  | 
COc1cc2c(cc1C=C(C)C)-c1c(c(C(=O)NCCCN3CCOC3=O)nn1-c1ccsc1)CO2 [Compound 9, 7-Methoxy-8-(2-methyl-propenyl)-1-thiophen-3-yl-1,4-dihydro-chromeno[4,3-c]pyrazole-3-carboxylic acid [3-(2-oxo-oxazolidin-3-yl)-propyl]-amide] | 1000 to 5000 |  | 40.5 |  | 
COc1cc2c(cc1-c1ccn(C)n1)-c1c(c(C(=O)N3CCOCC3(C)C)nn1-c1ccsc1)CO2 [Compound 94, (3,3-Dimethyl-morpholin-4-yl)-[7-methoxy-8-(1-methyl-1H-pyrazol-3-yl)-1-thiophen-3-yl-1,4-dihydro-chromeno[4,3-c]pyrazol-3-yl]-methanone] | < 100 | 100 to 1000 |  |  | 
COc1cc2c(cc1CC(C)C)-c1c(c(C(=O)N(C)C(C)(C)C)nn1-c1ccsc1)CO2 [Compound 5, 8-Isobutyl-7-methoxy-1-thiophen-3-yl-1,4-dihydro-chromeno[4,3-c]pyrazole-3-carboxylic Acid tert-butyl-methyl-amide] | < 100 | 1000 to 5000 |  |  | 

Now from value to compound, other results behind:

EC50 (FSHR) [nM] | EC50 [1] [nM] | Emax at 30 µM ([1]; @ 30 μM, read-out: Assay B: percental effect (response) relative to the maximum response of the FSH standard) [%] | SMILES | Emax at 6 µM [1, 2] [%] | Emax at 30 µM [1, 2] [%]
< 100 | > 5000 |  | [2H]C([2H])([2H])OCC1(N(C(=O)c2nn(-c3ccsc3)c3c2COc2cc(OC)c(S(=O)(=O)C(C)C)cc2-3)C([2H])([2H])[2H])COC1 [Compound 200] |  | 
< 100 | 100 to 1000 |  | [2H]C([2H])([2H])N(C(=O)c1nn(-c2ccsc2)c2c1COc1cc(OC)c(CC(C)C)cc1-2)C1(C)COC1 [Compound 163] |  | 
< 100 | 100 to 1000 |  | COc1cc2c(cc1C1CCOC1)-c1c(c(C(=O)N(C)C(C)(C)C)nn1-c1ccsc1)CO2 (centres unmarked) [Compound 194, 7-Methoxy-8-(tetrahydro-furan-3-yl)-1-thiophen-3-yl-1,4-dihydro-chromeno[4,3-c]pyrazole-3-carboxylic Acid tert-butyl-methyl-amide] |  | 
< 100 | < 100 |  | [2H]C([2H])([2H])OCC1(C)CCCN1C(=O)c1nn(-c2ccsc2)c2c1COc1cc(OC)c(-c3ccn(C)c3)cc1-2 (centres unmarked) [Compound 184] |  | 
< 100 | < 100 |  | [2H]C([2H])([2H])OCCC1(N(C(=O)c2nn(-c3ccsc3)c3c2COc2cc(OC)c(-c4ccn(C)c4)cc2-3)C([2H])([2H])[2H])COC1 [Compound 198] |  | 
< 100 | < 100 |  | [2H]C([2H])([2H])OCC1(C)CCCN1C(=O)c1nn(-c2ccsc2)c2c1COc1cc(OC)c(-c3ccn(C)n3)cc1-2 (centres unmarked) [Compound 182] |  | 
100 to 1000 | 1000 to 5000 |  | COc1cc2c(cc1C1CCCO1)-c1c(c(C(=O)N(C)C(C)(C)C)nn1-c1ccsc1)CO2 (centres unmarked) [Compound 201, 7-Methoxy-8-(tetrahydro-furan-2-yl)-1-thiophen-3-yl-1,4-dihydro-chromeno[4,3-c]pyrazole-3-carboxylic Acid tert-butyl-methyl-amide] |  | 
